Assay [1] deals with T1, rat pancreatic lipase (Rattus norvegicus, UniProt P27657).
T1 sequence (P27657 17-465): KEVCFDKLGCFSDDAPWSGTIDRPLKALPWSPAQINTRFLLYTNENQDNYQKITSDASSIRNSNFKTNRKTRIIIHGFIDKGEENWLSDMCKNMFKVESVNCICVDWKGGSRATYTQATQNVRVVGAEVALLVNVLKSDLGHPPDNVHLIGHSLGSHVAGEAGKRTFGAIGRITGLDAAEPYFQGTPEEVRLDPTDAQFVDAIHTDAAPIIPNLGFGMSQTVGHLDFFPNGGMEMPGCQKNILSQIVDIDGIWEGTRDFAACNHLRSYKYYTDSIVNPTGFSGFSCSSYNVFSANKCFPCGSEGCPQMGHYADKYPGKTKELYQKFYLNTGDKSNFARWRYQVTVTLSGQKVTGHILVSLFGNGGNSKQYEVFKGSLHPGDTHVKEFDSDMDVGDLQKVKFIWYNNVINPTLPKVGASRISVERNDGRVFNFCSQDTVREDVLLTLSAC
The assay can be described thus: inhibition of rat pancreatic lipase activity in vitro. The class given is biochemical. The following applies: [14C]-triolein emulsion, pH 8.6, 20 min. at 37° C. The method, then:
Dietary long-chain triglycerides must be hydrolyzed by pancreatic lipase in the duodenum before absorption can occur. […] The capacity of compounds of formula I-C to inhibit rat pancreatic lipase in vitro was investigated by testing the following compounds: The ability of compounds to inhibit rat pancreatic lipase is determined by analyzing the nmoles of free fatty acid [oleic acid] released from [^14 C]-triolein. Compounds of A and B are added to an emulsion consisting of: 200,000 dmp ^14 C-triolein, 7.5 mg triolein, 0.75 mg sodium taurocholate, 15 mg bovine serum albumin and 0.9 ml 0.2 M tris-HCl - 0.15 M NaCl, pH 8.6, per assay. Water and/or pancreatic lipase is added to make an assay volume of 1.0 ml. The emulsion is incubated for 20 min. at 37° C in a shaking water bath. The reaction is stopped by the addition of isopropanol; H2 SO4 (40:1). The lipids are extracted twice with 3 ml volumes of hexane. The liberated fatty acids are extracted with 2 ml of 0.1 N aqueous KOH in 50% methanol. A 1 ml aliquot of the KOH layer is placed in a scintillation vial with 10 ml of 2,5-bis-2-(5-tertiary butyl benzoxazolyl)thiophene. The radioactivity is determined in a scintillation counter. Data are expressed a nmoles free fatty acid [oleic acid] related.

In assay [2] the test system is bile flow. The assay can be described thus: stimulation of bile flow in rats, duodenal infusion. It counts as in vivo, female albino rats. The following applies: 100 mg by duodenal infusion in 4ml emulsion, compared to rats which received only the emulsion. The method, then:
The compounds of formula I-A are active in stimulation of bile flow which results in the dissolution of gall stones. This can be seen from the fact that when 100 mg of N-(3α,12α-dihydroxy-5β-24-norcholanoyl)-taurine was administered by duodenal infusion to female albino rats in a 4ml emulsion of sodium taurocholate in […], the flow of bile was increased 15% during the first 8 hours and 30% during the period of 9 to 15 hours after administration compared to the flow in rats which received only the emulsion without the taurine compound. […] This enabled the production of lymph at a constant rate, the infusion of a bile salt and the simultaneous collection of bile.

Assay [3] has as its system triglyceride absorption. The assay can be described thus: effect on triglyceride absorption in vivo, rise in plasma triglycerides after oral load of corn oil. More on the design: species or system rats. How it is done: The ability of compound I to inhibit the absorption of dietary triglyceride in rats is determined by analyzing the rise in serum triglycerides after an oral load of corn oil. […] In this procedure blood samples (0.4 ml) were collected from the rat tail 0, 2, 4, 6, 8 and 24 hours after compound administration. Each rat is its own control. Plasma samples were analyzed for triglyceride content by the procedure set forth in Kessler and Lederer, Tehnicon Symposium 1965 Automation in Analytical Chemistry Ed L. Skeggs, published Mediad Inc. New York (1966) pp 341. The data in Table I is expressed as mg% change in plasma triglyceride levels compared to zero time control values at each time interval. This change in plasma triglycerides was determined by calculating the difference between the triglyceride level at each time point compared to zero time contol level.

The test system of assay [4] is cholesterol level in the lymph. The assay is described as follows: cholesterol level in thoracic duct lymph of rats after oral administration with 4-14C-cholesterol emulsion. Particulars: 100mg orally, compared to control (Na-TC). The class given is in vivo, female albino rats (Charles River). How it is done: The lowering of the cholesterol levels in mammals by the administration of the compound of formula I-B can be seen from the fact that when 100mg of N-(3α,12α-dihydroxyetiocholanoyl)glycine was administered orally to female albino rats, the cholesterol level in the lymph was decreased after administration by 86% over the first 8 hours and 94% over the next 9 to 24 hr. period after administration as compared to the control. In this procedure, female albino rats (Charles River), weighing 300 ± 10 g were kept on a Purina chow diet ad libitum until the time of operation. […] This preparation enabled the production of lymph at a constant rate, the infusion of a bile salt, and the simultaneous collection of bile. All animals received, after operation, a continuous duodenal infusion of sodium taurocholate (Na-TC) in 0.85% NaCl. One day after operation, the rats were given, by stomach intubation, an emulsion containing about 4% triolein, 20 μ C of 4-^14 C-cholesterol (Specific Activity 61.7 mC/mM, 159 μ C/mg), 2 mg of cholesterol, in addition to protein, carbohydrate, and saline. Both the Na-TC and the cholesterol carrier employed gave a single spot on either thin layer or glass fiber paper chromatograph so no further purification was attempted. […] An aliquot of the lipid extract was placed on a small piece of glass fiber paper and counted. […]

The text below walks through data of patent US4104285A, “Taurine and glycine derivatives” (Hoffmann-La Roche Inc., priority 1977, dated 1978).

The structures appear in SMILES notation.

On to `C[C@H](CC(=O)NCCS(=O)(=O)O)[C@H]1CC[C@H]2[C@@H]3CC[C@@H]4C[C@H](O)CC[C@]4(C)[C@H]3C[C@H](O)[C@]12C` [Compound A, N-(3α,12α-dihydroxy-5β-24-norcholanoyl)-taurine], for which the Ki in assay [1] turned out to be 7 mM. The entries for the “increase in flow of bile” value in assay [2] (during the first 8 hours after administration) and in assay [2] (period of 9 to 15 hours after administration) were 15% and 30%, respectively.

`C[C@H](CC(=O)NCC(=O)O)[C@H]1CC[C@H]2[C@@H]3CC[C@@H]4C[C@H](O)CC[C@]4(C)[C@H]3C[C@H](O)[C@]12C` [Compound B, N-(3α,12α-dihydroxy-5β-24-norcholanoyl)glycine]: the affinity in assay [1] corresponds to a Ki of 8 mM.

Take `C[C@]12CC[C@@H](O)C[C@H]1CC[C@@H]1[C@@H]2C[C@H](O)[C@]2(C)[C@@H](C(=O)NCC(=O)O)CC[C@@H]12` [N-(3α,12α-dihydroxyetiocholanoyl)glycine]: the “ability to inhibit absorption of triglyceride” value in assay [3] (1.1 m moles/kg orally 15 minutes before oral corn oil, 24 hour fasted rats) is reported as “inhibit absorption of triglyceride”. The “Change in Plasma Triglyceride Levels, 4 hr” value in assay [3] (1.1 m moles/kg orally 15 minutes before oral corn oil, 24 hour fasted rats, 4 hr vs zero time, Control 98 ± 31) stood at 107 ± 17 mg %. The “Change in Plasma Triglyceride Levels, 6 hr” value in assay [3] (1.1 m moles/kg orally 15 minutes before oral corn oil, 24 hour fasted rats, 6 hr vs zero time, Control 161 ± 28) is 130 ± 17 mg %. For the same molecule, the “Change in Plasma Triglyceride Levels, 8 hr” value in assay [3] (1.1 m moles/kg orally 15 minutes before oral corn oil, 24 hour fasted rats, 8 hr vs zero time, Control 391 ± 58) is on record as 167 ± 22 mg %. In addition, the “Change in Plasma Triglyceride Levels, 24 hr” value in assay [3] (1.1 m moles/kg orally 15 minutes before oral corn oil, 24 hour fasted rats, 24 hr vs zero time, Control 130 ± 36) came out at 46 ± 5 mg %. The “Change in Plasma Triglyceride Levels, 2 hr” value in assay [3] (po) is on record as 29 ± 3 mg %. In addition, the entries for the “decrease of cholesterol level in the lymph (4-14C-cholesterol, % decrease over the control)” value in assay [4] (first 8 hours after administration) and in assay [4] (next 9 to 24 hr. period after administration) were 86% and 94%, respectively.
